These results are taken from PMC11494501, “AlphaFold Ensemble Competition Screens Enable Peptide Binder Design with Single-Residue Sensitivity” (ACS Chemical Biology, 2024).

Residues, ends and D or L forms follow the SMILES beside them. *: point of attachment. FITC = O=C1OC2(c3ccc(O)cc3Oc3cc(O)ccc32)c2ccc(NC(=S)*)cc21; βAla = NCCC(=O)O

The target of one assay is T1, Ub (Homo sapiens, UniProt P0CG48).
Assay: not given
The settings on record: read-out: dissociation constant of Ub:UIM-1 complex; cited from earlier work. The source says:
We selected the UIM-1 sequence as an experimental model system because it is well characterized, having both the reported dissociation constant and NMR structure (pdb: 1q0w, Figure 1a,c). […] The UIM-1 sequence binds to Ub primarily through a series of hydrophobic contacts around the characteristic “AxxxS” UIM pattern of alanine and serine residues spaced four positions apart. Further, polar and salt bridge contacts may also stabilize the complex. […] The peptide concentration was mainta ...
“UIM-1: first UIM of the Vps27 protein; literature Kd from a slightly longer variant of the peptide”: the Kd was 277 µM.

In a further assay the target is T1, Ub. The assay is described as follows: Fluorescence polarization (FP) titration of labelled peptide against Ub. The settings on record: 1c (C-terminal Lys side-chain label) relative to 1a (N-terminal label), from FP Kd. Background: Fluorescence polarisation rises when a labelled molecule tumbles more slowly, as on binding a larger partner.
As to `CC[C@H](C)[C@H](NC(=O)[C@H](C)NC(=O)[C@H](CCCCN)NC(=O)[C@H](CCCNC(=N)N)NC(=O)[C@@H](NC(=O)[C@H](CC(C)C)NC(=O)[C@H](CCC(=O)O)NC(=O)[C@H](CCC(=O)O)NC(=O)[C@H](CCC(=O)O)NC(=O)[C@H](CC(=O)O)NC(=O)[C@H](CCC(=O)O)NC(=O)CNC(C)=O)[C@@H](C)CC)C(=O)N[C@@H](CCC(=O)O)C(=O)N[C@@H](CC(C)C)C(=O)N[C@@H](CO)C(=O)N[C@@H](CC(C)C)C(=O)N[C@@H](CCCCN)C(=O)N[C@@H](CCC(=O)O)C(=O)N[C@@H](CO)C(=O)NCC(=O)N[C@@H](CCCCNC(=S)Nc1ccc2c(c1)C(=O)OC21c2ccc(O)cc2Oc2cc(O)ccc21)C(N)=O` [1c] (Ac-GEDEEELIRKAIELSLKESGK(FITC)-NH2), the “reduction in binding energy” value was determined as 6.5 kJ mol^–1.

Staying with this assay, now noted: relative to 1a (UIM-1), from FP Kd; positive = weaker binding.
Turning to `CC[C@H](C)[C@H](NC(=O)[C@H](C)NC(=O)[C@H](CCCCN)NC(=O)[C@H](CCCNC(=N)N)NC(=O)[C@@H](NC(=O)[C@H](CC(C)C)NC(=O)[C@H](CCC(=O)O)NC(=O)[C@H](CCC(=O)O)NC(=O)[C@H](CCC(=O)O)NC(=O)[C@H](CC(=O)O)NC(=O)[C@H](CCC(=O)O)NC(=O)CNC(=O)CCNC(=S)Nc1ccc2c(c1)C(=O)OC21c2ccc(O)cc2Oc2cc(O)ccc21)[C@@H](C)CC)C(=O)N[C@@H](CCC(=O)O)C(=O)N[C@@H](CC(C)C)C(=O)N[C@@H](CO)C(=O)N[C@@H](C)C(=O)N[C@@H](CCCCN)C(=O)N[C@@H](CCC(=O)O)C(=O)N[C@@H](CO)C(=O)NCC(N)=O` [6a] ({FITC-βAla}-GEDEEELIRKAIELSAKESG-NH2), the “ΔΔG for binding Ub” value amounted to 1.12 kcal/mol.
The same measure, in the same setting: the same measure for `CC[C@H](C)[C@H](NC(=O)[C@H](C)NC(=O)[C@H](CCCCN)NC(=O)[C@H](CCCNC(=N)N)NC(=O)[C@H](Cc1ccccc1)NC(=O)[C@H](CC(C)C)NC(=O)[C@H](CCC(=O)O)NC(=O)[C@H](CCC(=O)O)NC(=O)[C@H](CCC(=O)O)NC(=O)[C@H](CC(=O)O)NC(=O)[C@H](CCC(=O)O)NC(=O)CNC(=O)CCNC(=S)Nc1ccc2c(c1)C(=O)OC21c2ccc(O)cc2Oc2cc(O)ccc21)C(=O)N[C@@H](CCC(=O)O)C(=O)N[C@@H](CC(C)C)C(=O)N[C@@H](CO)C(=O)N[C@@H](CC(C)C)C(=O)N[C@@H](CCCCN)C(=O)N[C@@H](CCC(=O)O)C(=O)N[C@@H](CO)C(=O)NCC(N)=O` [8a] ({FITC-βAla}-GEDEEELFRKAIELSLKESG-NH2): 0.502 kcal/mol; for `CC[C@H](C)[C@H](NC(=O)[C@H](C)NC(=O)[C@H](CCCCN)NC(=O)[C@H](CCCNC(=N)N)NC(=O)[C@@H](NC(=O)[C@H](CC(C)C)NC(=O)[C@H](CCC(=O)O)NC(=O)[C@H](CCC(=O)O)NC(=O)[C@H](CCC(=O)O)NC(=O)[C@H](CC(=O)O)NC(=O)[C@H](CCC(=O)O)NC(=O)CNC(=O)CCNC(=S)Nc1ccc2c(c1)C(=O)OC21c2ccc(O)cc2Oc2cc(O)ccc21)[C@@H](C)CC)C(=O)N[C@@H](CCC(=O)O)C(=O)N[C@@H](CCC(=O)O)C(=O)N[C@@H](CO)C(=O)N[C@@H](CC(C)C)C(=O)N[C@@H](CCCCN)C(=O)N[C@@H](CCC(=O)O)C(=O)N[C@@H](CO)C(=O)NCC(N)=O` [10a] ({FITC-βAla}-GEDEEELIRKAIEESLKESG-NH2): -0.072 kcal/mol.
As to `CC[C@H](C)[C@H](NC(=O)[C@H](C)NC(=O)[C@H](CCCCN)NC(=O)[C@H](CCCNC(=N)N)NC(=O)[C@@H](NC(=O)[C@H](CC(C)C)NC(=O)[C@H](CCC(=O)O)NC(=O)[C@H](CCC(=O)O)NC(=O)[C@H](CCC(=O)O)NC(=O)[C@H](CC(=O)O)NC(=O)[C@H](CCC(=O)O)NC(=O)CNC(=O)CCNC(=S)Nc1ccc2c(c1)C(=O)OC21c2ccc(O)cc2Oc2cc(O)ccc21)[C@@H](C)CC)C(=O)N[C@@H](CCC(=O)O)C(=O)N[C@@H](CC(C)C)C(=O)N[C@@H](CO)C(=O)N[C@@H](CCC(=O)O)C(=O)N[C@@H](CCCCN)C(=O)N[C@@H](CCC(=O)O)C(=O)N[C@@H](CO)C(=O)NCC(N)=O` [11a] ({FITC-βAla}-GEDEEELIRKAIELSEKESG-NH2), the “ΔΔG for binding Ub” value was 1.08 kcal/mol.
`CC[C@H](C)[C@H](NC(=O)[C@H](CC(C)C)NC(=O)[C@H](CCC(=O)O)NC(=O)[C@H](CCC(=O)O)NC(=O)[C@H](CCC(=O)O)NC(=O)[C@H](CC(=O)O)NC(=O)[C@H](CCC(=O)O)NC(=O)CNC(=O)CCNC(=S)Nc1ccc2c(c1)C(=O)OC21c2ccc(O)cc2Oc2cc(O)ccc21)C(=O)N[C@@H](CCCNC(=N)N)C(=O)N[C@@H](CCCCN)C(=O)N[C@@H](C)C(=O)N[C@@H](CC(C)C)C(=O)N[C@@H](CCC(=O)O)C(=O)N[C@@H](CC(C)C)C(=O)N[C@@H](CO)C(=O)N[C@@H](CC(C)C)C(=O)N[C@@H](CCCCN)C(=O)N[C@@H](CCC(=O)O)C(=O)N[C@@H](CO)C(=O)NCC(N)=O` [9a] ({FITC-βAla}-GEDEEELIRKALELSLKESG-NH2): the “ΔΔG for binding Ub” value was found to be 0.693 kcal/mol.
On the same count and under the same terms, the same measure for `CC[C@H](C)[C@H](NC(=O)[C@H](C)NC(=O)[C@H](CCCCN)NC(=O)[C@H](CCCNC(=N)N)NC(=O)[C@@H](NC(=O)[C@H](CCC(=O)O)NC(=O)[C@H](CCC(=O)O)NC(=O)[C@H](CCC(=O)O)NC(=O)[C@H](CCC(=O)O)NC(=O)[C@H](CC(=O)O)NC(=O)[C@H](CCC(=O)O)NC(=O)CNC(=O)CCNC(=S)Nc1ccc2c(c1)C(=O)OC21c2ccc(O)cc2Oc2cc(O)ccc21)[C@@H](C)CC)C(=O)N[C@@H](CCC(=O)O)C(=O)N[C@@H](CC(C)C)C(=O)N[C@@H](CO)C(=O)N[C@@H](CC(C)C)C(=O)N[C@@H](CCCCN)C(=O)N[C@@H](CCC(=O)O)C(=O)N[C@@H](CO)C(=O)NCC(N)=O` [7a] ({FITC-βAla}-GEDEEEEIRKAIELSLKESG-NH2): 0.669 kcal/mol.
For `CC[C@H](C)[C@H](NC(=O)[C@H](CC(C)C)NC(=O)[C@H](CCC(=O)O)NC(=O)[C@H](CCC(=O)O)NC(=O)[C@H](CCC(=O)O)NC(=O)[C@H](CC(=O)O)NC(=O)[C@H](CCC(=O)O)NC(=O)CNC(=O)CCNC(=S)Nc1ccc2c(c1)C(=O)OC21c2ccc(O)cc2Oc2cc(O)ccc21)C(=O)N[C@@H](CCCNC(=N)N)C(=O)N[C@@H](CCCCN)C(=O)N[C@@H](C)C(=O)N[C@@H](C)C(=O)N[C@@H](CCC(=O)O)C(=O)N[C@@H](CC(C)C)C(=O)N[C@@H](CO)C(=O)N[C@@H](CC(C)C)C(=O)N[C@@H](CCCCN)C(=O)N[C@@H](CCC(=O)O)C(=O)N[C@@H](CO)C(=O)NCC(N)=O` [4a] ({FITC-βAla}-GEDEEELIRKAAELSLKESG-NH2), the “ΔΔG for binding Ub” value was 1.67 kcal/mol.
For the compound `CC[C@H](C)[C@H](NC(=O)[C@H](C)NC(=O)[C@H](CCCCN)NC(=O)[C@H](CCCNC(=N)N)NC(=O)[C@@H](NC(=O)[C@H](CC(C)C)NC(=O)[C@H](CCC(=O)O)NC(=O)[C@H](CCC(=O)O)NC(=O)[C@H](CCC(=O)O)NC(=O)[C@H](CC(=O)O)NC(=O)[C@H](CCC(=O)O)NC(=O)CNC(=O)CCNC(=S)Nc1ccc2c(c1)C(=O)OC21c2ccc(O)cc2Oc2cc(O)ccc21)[C@@H](C)CC)C(=O)N[C@@H](CCC(=O)O)C(=O)N[C@@H](C)C(=O)N[C@@H](CO)C(=O)N[C@@H](CC(C)C)C(=O)N[C@@H](CCCCN)C(=O)N[C@@H](CCC(=O)O)C(=O)N[C@@H](CO)C(=O)NCC(N)=O` [5a] ({FITC-βAla}-GEDEEELIRKAIEASLKESG-NH2), the “ΔΔG for binding Ub” value turned out to be 0.239 kcal/mol.
The same measure, in the same setting: the same measure for `CC[C@H](C)[C@H](NC(=O)[C@H](C)NC(=O)[C@H](CCCCN)NC(=O)[C@H](CCCNC(=N)N)NC(=O)[C@H](C)NC(=O)[C@H](CC(C)C)NC(=O)[C@H](CCC(=O)O)NC(=O)[C@H](CCC(=O)O)NC(=O)[C@H](CCC(=O)O)NC(=O)[C@H](CC(=O)O)NC(=O)[C@H](CCC(=O)O)NC(=O)CNC(=O)CCNC(=S)Nc1ccc2c(c1)C(=O)OC21c2ccc(O)cc2Oc2cc(O)ccc21)C(=O)N[C@@H](CCC(=O)O)C(=O)N[C@@H](CC(C)C)C(=O)N[C@@H](CO)C(=O)N[C@@H](CC(C)C)C(=O)N[C@@H](CCCCN)C(=O)N[C@@H](CCC(=O)O)C(=O)N[C@@H](CO)C(=O)NCC(N)=O` [3a] ({FITC-βAla}-GEDEEELARKAIELSLKESG-NH2): 1.89 kcal/mol.

Staying with this assay, now noted: relative to 1a, from FP Kd.
With `CC[C@H](C)[C@H](NC(=O)[C@H](C)NC(=O)[C@H](CCCCN)NC(=O)[C@H](CCCNC(=N)N)NC(=O)[C@@H](NC(=O)[C@H](CC(C)C)NC(=O)[C@H](CCC(=O)O)NC(=O)[C@H](CCC(=O)O)NC(=O)[C@H](CCC(=O)O)NC(=O)[C@H](CC(=O)O)NC(=O)[C@H](CCC(=O)O)NC(=O)CNC(=O)CCNC(=S)Nc1ccc2c(c1)C(=O)OC21c2ccc(O)cc2Oc2cc(O)ccc21)[C@@H](C)CC)C(=O)N[C@@H](CCC(=O)O)C(=O)N[C@@H](CCC(=O)O)C(=O)N[C@@H](CO)C(=O)N[C@@H](CC(C)C)C(=O)N[C@@H](CCCCN)C(=O)N[C@@H](CCC(=O)O)C(=O)N[C@@H](CO)C(=O)NCC(N)=O` [10a] ({FITC-βAla}-GEDEEELIRKAIEESLKESG-NH2), the additional binding energy came out at 0.3 kJ mol^–1.
